Results: the supplement of paper PMC10627819

Columns and labels:
[1] = test system: S. pneumoniae D39V; experiment: Bliss interaction score (quartile over a dose matrix) (fitness difference); higher = more antagonism (negative = synergy)
Outline: (§1)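 Growth was read as OD595 when cultures entered stationary phase, and each value was divided by the plate's robust no-drug mean and capped at 1. This normalised ratio is the fitness value, and fitness for each single drug came from the combination data. The Bliss score subtracts the expected fitness, taken as the product, from the observed fitness and is given as quartiles across technical, biological and donor/recipient replicates.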

[2] = test system: B. subtilis 168; experiment: as above
Outline: as §1

[3] = test system: S. aureus Newman; experiment: as above
Outline: as §1

[4] = test system: S. aureus DSM 20231; experiment: as above
Outline: as §1

[5] = test system: S. pneumoniae D39V; experiment: fitness (endpoint OD595 vs no drug) (fraction); higher = more growth
Outline: (§2)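 Fitness expresses the optical density reached at the stationary-phase transition as a fraction of the robust mean of no-drug control wells. It is capped at 1. Measurements were OD595 every 30 min for 14 h at 37 °C after inoculation of 384-well plates at OD595 0.01 (30 µl, or 55 µl for S. pneumoniae), minus the first reading.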

[6] = test system: B. subtilis 168; experiment: as above
Outline: as §2
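For Bliss interaction score (quartile over a dose matrix) in this document: first quartile when negative (synergy) and third quartile when positive (antagonism).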
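For fitness (endpoint OD595 vs no drug) in this document: OD595 on entry to stationary phase over no-drug wells; at most 1.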

C[C@H]1c2cccc(O)c2C(=O)C2=C(O)[C@]3(O)C(=O)C(C(N)=O)=C(O)[C@@H](N(C)C)[C@@H]3[C@@H](O)[C@@H]21 [Doxycycline] + CCC[C@@H]1C[C@@H](C(=O)N[C@@H]([C@H]2O[C@H](SC)[C@H](O)[C@@H](O)[C@H]2O)[C@@H](C)O)N(C)C1 [Lincomycin]
Conditions | Bliss interaction score
[1] | -0.13
[2] | 0.0648
[3] | -0.0975
[4] | -0.228

fitness, one replicate
Conditions | first compound 0.003875 µg/mL | first compound 0.00775 µg/mL | first compound 0.02 µg/mL | first compound 0.031 µg/mL | first compound 0.04 µg/mL | first compound 0.062 µg/mL | first compound 0.08 µg/mL
[5], partner 0.2 µg/mL | 0.822 | 0.77 | – | 0.636 | – | 0.374 | –
[5], partner 0.4 µg/mL | 0.748 | 0.711 | – | 0.398 | – | 0.146 | –
[5], partner 0.8 µg/mL | 0.231 | 0.303 | – | 0.163 | – | 0.0672 | –
[6], partner 0.8 µg/mL | – | – | 0.881 | – | 0.693 | – | 0.209
[6], partner 1.6 µg/mL | – | – | 0.792 | – | 0.549 | – | 0.153

fitness
Conditions | partner 0.1 µg/mL | partner 0.2 µg/mL | partner 0.215 µg/mL | partner 0.4 µg/mL | partner 0.43 µg/mL | partner 0.8 µg/mL | partner 0.86 µg/mL
[5], first compound 0.0155 µg/mL | – | 0.76 | 0.726 | 0.657 | 0.62 | 0.213 | 0.344
[5], first compound 0.031 µg/mL | – | – | 0.716 | – | 0.625 | – | 0.298
[5], first compound 0.062 µg/mL | – | – | 0.674 | – | 0.481 | – | 0.221
[6], first compound 0.02 µg/mL | 0.918 | 0.888 | – | 0.885 | – | – | –
[6], first compound 0.04 µg/mL | 0.764 | 0.72 | – | 0.717 | – | – | –

C[C@H]1c2cccc(O)c2C(=O)C2=C(O)[C@]3(O)C(=O)C(C(N)=O)=C(O)[C@@H](N(C)C)[C@@H]3[C@@H](O)[C@@H]21 [Doxycycline] + CCN(CC)CCOC(=O)c1ccc(N)cc1 [Procaine]
Conditions | Bliss interaction score
[1] | 0.0386
[2] | -0.0366
[3] | 0.0409
[4] | -0.0922

fitness, [5], one replicate
Conditions | partner 85.5 µg/mL | partner 171 µg/mL | partner 342 µg/mL
first compound 0.003875 µg/mL | ≥ 1 | ≥ 1 | ≥ 1
first compound 0.00775 µg/mL | ≥ 1 | 0.971 | 0.994

fitness
Conditions | partner 85.5 µg/mL | partner 171 µg/mL | partner 342 µg/mL
[5], first compound 0.0155 µg/mL | 0.972 | 0.95 | 0.955
[5], first compound 0.031 µg/mL | 0.862 | 0.835 | 0.849
[5], first compound 0.062 µg/mL | 0.77 | 0.753 | 0.744
[6], first compound 0.02 µg/mL | 0.892 | 0.855 | 0.844
[6], first compound 0.04 µg/mL | 0.742 | 0.707 | 0.7
[6], first compound 0.08 µg/mL | – | 0.363 | –

C[C@H]1c2cccc(O)c2C(=O)C2=C(O)[C@]3(O)C(=O)C(C(N)=O)=C(O)[C@@H](N(C)C)[C@@H]3[C@@H](O)[C@@H]21 [Doxycycline] + CN1C2=CC=CC=C2N=C3C1=CC=CC3=O [Pyocyanin]
Conditions | Bliss interaction score
[1] | 0.127
[2] | 0.092
[3] | -0.0231
[4] | 0.0677

fitness, [5], one replicate
Conditions | first compound 0.003875 µg/mL | first compound 0.00775 µg/mL | first compound 0.031 µg/mL | first compound 0.062 µg/mL
partner 0.325 µg/mL | ≥ 1 | ≥ 1 | – | –
partner 0.65 µg/mL | ≥ 1 | 0.997 | – | –
partner 1.3 µg/mL | 0.741 | 0.737 | 0.854 | 0.694

Conditions | fitness
[5], first compound 0.0155 µg/mL, partner 0.325 µg/mL | ≥ 1
[5], first compound 0.0155 µg/mL, partner 0.65 µg/mL | ≥ 1
[5], first compound 0.0155 µg/mL, partner 1.3 µg/mL | 0.823
[5], first compound 0.031 µg/mL, partner 0.325 µg/mL | 0.941
[5], first compound 0.031 µg/mL, partner 0.65 µg/mL | 0.97
[5], first compound 0.062 µg/mL, partner 0.325 µg/mL | 0.857
[5], first compound 0.062 µg/mL, partner 0.65 µg/mL | 0.87
[6], first compound 0.02 µg/mL, partner 1.25 µg/mL | 0.875
[6], first compound 0.02 µg/mL, partner 2.5 µg/mL | 0.828
[6], first compound 0.02 µg/mL, partner 5 µg/mL | 0.737
[6], first compound 0.04 µg/mL, partner 1.25 µg/mL | 0.775
[6], first compound 0.04 µg/mL, partner 2.5 µg/mL | 0.692
[6], first compound 0.04 µg/mL, partner 5 µg/mL | 0.605
[6], first compound 0.08 µg/mL, partner 1.25 µg/mL | 0.613
[6], first compound 0.08 µg/mL, partner 2.5 µg/mL | 0.559
[6], first compound 0.08 µg/mL, partner 5 µg/mL | 0.36

C[C@H]1c2cccc(O)c2C(=O)C2=C(O)[C@]3(O)C(=O)C(C(N)=O)=C(O)[C@@H](N(C)C)[C@@H]3[C@@H](O)[C@@H]21 [Doxycycline] + CN(C)C(=O)C(CCN1CCC(O)(c2ccc(Cl)cc2)CC1)(c1ccccc1)c1ccccc1 [Loperamide]
Conditions | Bliss interaction score
[1] | 0.193
[2] | -0.189
[3] | 0.0172
[4] | 0.107

fitness, [5], one replicate
Conditions | first compound 0.003875 µg/mL | first compound 0.00775 µg/mL | first compound 0.0155 µg/mL | first compound 0.031 µg/mL | first compound 0.062 µg/mL
partner 20 µg/mL | ≥ 1 | ≥ 1 | – | 0.976 | 0.836
partner 40 µg/mL | ≥ 1 | ≥ 1 | – | 0.942 | 0.826
partner 68.57 µg/mL | – | – | 0.858 | 0.875 | 0.966
partner 80 µg/mL | ≥ 1 | ≥ 1 | – | 0.973 | 0.764

Conditions | fitness
[5], first compound 0.0155 µg/mL, partner 17.14 µg/mL | 0.874
[5], first compound 0.0155 µg/mL, partner 20 µg/mL | ≥ 1
[5], first compound 0.0155 µg/mL, partner 34.28 µg/mL | 0.861
[5], first compound 0.0155 µg/mL, partner 40 µg/mL | ≥ 1
[5], first compound 0.0155 µg/mL, partner 80 µg/mL | ≥ 1
[5], first compound 0.031 µg/mL, partner 17.14 µg/mL | 0.939
[5], first compound 0.031 µg/mL, partner 34.28 µg/mL | 0.932
[5], first compound 0.062 µg/mL, partner 17.14 µg/mL | 0.864
[5], first compound 0.062 µg/mL, partner 34.28 µg/mL | 0.895
[6], first compound 0.02 µg/mL, partner 25 µg/mL | 0.544
[6], first compound 0.02 µg/mL, partner 50 µg/mL | 0.0585
[6], first compound 0.02 µg/mL, partner 100 µg/mL | 0.0358
[6], first compound 0.04 µg/mL, partner 25 µg/mL | 0.0527
[6], first compound 0.04 µg/mL, partner 50 µg/mL | 0.0434
[6], first compound 0.04 µg/mL, partner 100 µg/mL | 0.0354
[6], first compound 0.08 µg/mL, partner 25 µg/mL | 0.0276
[6], first compound 0.08 µg/mL, partner 50 µg/mL | 0.0338
[6], first compound 0.08 µg/mL, partner 100 µg/mL | 0.0354
